# Measurements published in article PMC9234021 (Cell Reports, 2022).
# Where two headings read alike, the source gives them in different places. No end group written: not given here.
# What was measured:
# [1] = identical treatment with JQ1 or ABBV-744, H&E
# [2] = tested on: lungs of SARS-CoV-2 infected mice; design: species or system K18-hACE2 C57BL/6J mice; details: mouse, in vivo
# SARS-CoV-2 [3] = tested on: SARS-CoV-2; design: species or system K18-hACE2 C57BL/6J mice; details: mouse, in vivo
# SARS-CoV-2 [4] = format: cell-based, SARS-CoV-2 isolate USA-WA1/2020; details: p = 0.0004, three independent experiments in triplicate
# SARS-CoV-2 [5] = format: cell-based, SARS-CoV-2 isolate USA-WA1/2020; details: p = 0.0001, three independent experiments in duplicate
# SARS-CoV-2 [6] = format: in vivo, K18-hACE2 C57BL/6J mice; details: JQ1 50 mg/kg i.p. or ABBV-744 20 mg/kg oral once daily, n = 5 per group
# [7] = tested on: SARS-CoV-2 nucleocapsid (N) protein; format: in vivo, K18-hACE2 C57BL/6J mice; details: JQ1 50 mg/kg i.p. or ABBV-744 20 mg/kg oral once daily
# BET proteins = details: cited from earlier work
# SARS-CoV-2 [8] = details: mouse, in vivo; cited from earlier work
# influenza A = details: cited from earlier work
# A549 cells = assay: qRT-PCR of poly; format: cell-based
# Calu3 cells [9] = format: cell-based
# Calu3 cells [10] = assay: Cell viability; format: cell-based; details: Calu3, 500 nM, 48 hours, CellTiter-Glo, relative to DMSO
# A549-ACE2 cells = assay: Cell viability; format: cell-based; details: A549-ACE2, 500 nM, 48 hours, CellTiter-Glo, relative to DMSO
# [11] = target: BRD4 second bromodomain BD2 (349-460), His-SUMO tag removed (UniProt O60885 349-460, 15N-labeled); assay: NMR titration
# [12] = pan-BET inhibitors, no reference given
Molecule,"lung inflammation in healthy, uninfected mice [1]",CCL2 expression in lungs [2],CXCL9 expression in lungs [2],CXCL10 expression in lungs [2],IL1a expression in lungs [2],IL6 expression in lungs [2],ISG15 expression in lungs [2],RIG-I expression in lungs [2],immune cell infiltration in the lungs (SARS-CoV-2 [3]),increase in infectious particle production in lungs (SARS-CoV-2 [6]) [fold],immunohistochemical staining for SARS-CoV-2 N protein in lungs [7],poly(I:C)-mediated induction of IFNB1 (A549 cells),poly(I:C)-mediated induction of IL6 (A549 cells),poly(I:C)-mediated induction of ISG15 (A549 cells),IFNB1 expression (Calu3 cells [9]),IL6 expression (Calu3 cells [9]),ISG15 expression (Calu3 cells [9]),bromodomain specificity (BET proteins; [12]),Kd [11] [µM],other results
"CCNC(=O)c1cc2c(-c3cc(C(C)(C)O)ccc3Oc3c(C)cc(F)cc3C)cn(C)c(=O)c2[nH]1 [ABBV-744, N-Ethyl-4-[2-(4-fluoro-2,6-dimethyl-phenoxy)-5-(1-hydroxy-1-methyl-ethyl)phenyl]-6-methyl-7-oxo-1H-pyrrolo[2,3-c]pyridine-2-carboxamide]",did not experience lung inflammation,significant decreases,significant decreases,significant decreases,significant decreases,significant decreases,significant decreases,significant decreases,decrease in immune cell infiltration,37,increased,–,–,–,–,–,–,–,–,"increase in SARS-CoV-2 viral RNA (SARS-CoV-2 [4]): 3 fold; increase in infectious particle production (SARS-CoV-2 [5]): 3 fold; bromodomain specificity (BET proteins; ABBV-744, ref Sheppard et al., 2020): specifically targets BD2-mediated interactions"
Cc1noc(C)c1-c1ccc2[nH]c(=O)n3c2c1OC[C@@H]3c1ccccn1 [INCB054329],–,–,–,–,–,–,–,–,–,–,–,–,–,–,–,–,–,–,–,lung pathology (SARS-CoV-2 [8]): severe lung pathology; viral RNA in the lungs (SARS-CoV-2 [8]): significant viral RNA in the lungs
Cc1sc2c(c1C)C(c1ccc(Cl)cc1)=N[C@@H](CC(=O)OC(C)(C)C)c1nnc(C)n1-2 [JQ1],did not experience lung inflammation,significant decreases,significant decreases,significant decreases,significant decreases,significant decreases,significant decreases,significant decreases,decrease in immune cell infiltration,18,increased,dampened,dampened,dampened,suppressed,suppressed,suppressed,disrupt BD1- and BD2-mediated interactions,–,transcriptional activation of the antiviral response (influenza A): attenuates transcriptional activation of the antiviral response
Cc1sc2c(c1C)C(c1ccc(Cl)cc1)=N[C@@H](CC(=O)NCCCCCCCCNC(=O)COc1cccc3c1C(=O)N(C1CCC(=O)NC1=O)C3=O)c1nnc(C)n1-2 (stereo partly shown) [dBET6],–,–,–,–,–,–,–,–,–,–,–,dampened,dampened,dampened,suppressed,suppressed,suppressed,disrupt BD1- and BD2-mediated interactions,–,viability (Calu3 cells [10]): non-toxic; viability (A549-ACE2 cells): non-toxic
"VYSRVK(Ac)NLNSS [SARS-CoV-2 E peptide, residues 58-68, acetylated at K63]",–,–,–,–,–,–,–,–,–,–,–,–,–,–,–,–,–,–,170 ± 60,–
"NVSLVK(Ac)PSFYV [SARS-CoV-2 E peptide, residues 48-58, acetylated at K53]",–,–,–,–,–,–,–,–,–,–,–,–,–,–,–,–,–,–,610 ± 160,–
